For this experiment, the system named is guinea-pig urinary bladder (GPB) cells. Kind of experiment: Membrane hyperpolarization (MHP) assay, DiBAC(4)3 dye, FLIPR. It is filed as cell-based. The following applies: Cavia porcellus; for Emax: maximal steady-state hyperpolarization in GPB cells, normalized to response with 10 μM P1075 (=100%); for EC50: membrane hyperpolarization in GPB cells, concentration eliciting 50% of the maximal response of the test sample. How it is done: Compounds were evaluated for potassium channel opening activity using primary cultured guinea-pig urinary bladder (GPB) cells.
For the preparation of urinary bladder smooth muscle cells, urinary bladders were removed from male guinea-pigs (Hartley, Charles River, Wilmington, Mass.) weighing 300-400 g and placed in ice-cold Ca^2+-free Krebs solution (Composition, mM: KCl, 2.7; KH2PO4, 1.5; NaCl, 75; Na2HPO4, 9.6; Na2HPO4.7H2O, 8; MgSO4, 2; glucose, 5; HEPES, 10; pH 7.4). Cells were isolated by enzymatic dissociation as previously described with minor modifications in (Klockner, U. and Isenberg, G., Pflugers Arch. 1985, 405, 329-339), hereby incorporated by reference. The bladder was cut into small sections and incubated in 5 mL of the Kreb's solution containing 1 mg/mL collagenase (Sigma, St. Louis, Mo.) and 0.2 mg/mL pronase (Calbiochem, La Jolla, Calif.) with continuous stirring in a cell incubator for 30 minutes. The mixture was then centrifuged at 1300×g for 5 minutes, and the pellet resuspended in Dulbecco's PBS (GIBCO, Gaithersburg, Md.) and recentrifuged to remove residual enzyme. The cell pellet was resuspended in 5 mL growth media (composition: Dulbecco's modified Eagle's medium supplemented with 10% fetal bovine serum, 100 units/mL penicillin, 100 units/mL streptomycin and […] amphotericin B) and further dissociated by pipetting the suspension through a flame-polished Pasteur pipette and passing it through a polypropylene mesh membrane (Spectrum, Houston, Tex.). The cell density was adjusted to 100,000 cells/mL by resuspension in growth media. Cells were plated in clear-bottomed black 96-well plates (Packard) for membrane potential studies at a density of 20,000 cells/well and maintained in a cell incubator with 90% air: 10% CO2 until confluent. Cells were confirmed to be of smooth muscle type by cytoskeletal staining using a monoclonal mouse anti human-α-smooth muscle actin (Biomeda, Foster City, Calif.).
Functional activity at potassium channels was measured by evaluating changes in membrane potential using the bis-oxonol dye DiBAC(4)3 (Molecular Probes) in a 96-well cell-based kinetic assay system, Fluorescent Imaging Plate Reader (FLIPR) (K. S. Schroeder et al., J. Biomed. Screen., v. 1 pp. 7581 (1996)), hereby incorporated by reference. DiBAC(4) is an anionic potentiometric probe which partitions between cells and extracellular solution in a membrane potential-dependent manner. With increasing membrane potential (for example, K^+ depolarization), the probe further partitions into the cell; this is measured as an increase in fluorescence due to dye interaction with intracellular lipids and proteins. Conversely, decreasing membrane potential (hyperpolarization by potassium channel openers) evokes a decrease in fluorescence.
Confluent guinea-pig urinary bladder cells cultured in black clear-bottomed 96-well plates were rinsed twice with […] assay buffer (composition, mM: HEPES, 20; NaCl, 120; KCl, 2; CaCl2, 2; MgCl2, 1; glucose, 5; pH 7.4 at 25° C.) containing 5 μM DiBAC(4) and incubated with […] of the buffer in a cell incubator for 30 minutes at 37° C. to ensure dye distribution across the membrane. After recording the baseline fluorescence for 5 minutes, the reference or test compounds, prepared at 10 times the concentration in the assay buffer, were added directly to the wells. Changes in fluorescence were monitored for an additional 25 minutes. Hyperpolarization responses were corrected for any background noise and were normalized to the response observed with 10 μM of the reference compound P1075, N″-cyano-N-(tert-pentyl)-N′-(3-pyridinyl)guanidine, which was assigned as 100%. P1075 is a potent opener of smooth muscle KATP channels (Quast et al., Mol. Pharmacol., v. 43 pp. 474-481 (1993)) and was prepared using the procedures described in (Manley, J. Med. Chem. (1992) 35, 2327-2340), hereby incorporated by reference. […]

This passage reports Emax and EC50 results from patent publication US6780872B2, “Tricyclic dihydropyrazolone and tricyclic dihydroisoxazolone potassium channel openers” (Abbott Laboratories, priority 2000, dated 2004).

Broadly, the Emax is the greatest response seen or fitted, relative to the assay's reference. As usually defined, the EC50 is the concentration giving half of the maximal effect. A high value points to a less potent agent. `Cn1[nH]c(=O)c2c1NC1=C(C(=O)C(C)(C)CC1)C2c1ccc(Cl)c(Cl)c1` (stereo not shown) [Example 24, 4-(3,4-dichlorophenyl)-1,6,6-trimethyl-4,7,8,9-tetrahydro-1H-pyrazolo[3,4-b]quinoline-3,5(2H,6H)-dione] returned an Emax of 82% and an EC50 of 180 nM.

`Cn1[nH]c(=O)c2c1NC1=C(C(=O)C(C)(C)CC1)C2c1ccc(F)c(-c2ccco2)c1` (stereo not shown) [Example 25, 4-[4-fluoro-3-(2-furyl)phenyl]-1,6,6-trimethyl-4,7,8,9-tetrahydro-1H-pyrazolo[3,4-b]quinoline-3,5(2H,6H)-dione]: the Emax was determined as 78% and the EC50 amounted to 3200 nM.

Consider `Cn1[nH]c(=O)c2c1NC1=C(C(=O)COC1)C2c1ccc(F)c(Br)c1` (stereo not shown) [Example 26, 4-(3-bromo-4-fluorophenyl)-1-methyl-1,2,4,9-tetrahydropyrano[3,4-b]pyrazolo[4,3-e]pyridine-3,5(6H,8H)-dione], for which the Emax amounted to 99% and the response was half-maximal at 50 nM (EC50).

Consider `Cn1[nH]c(=O)c2c1NC1=C(C(=O)OCC1)C2c1ccc(F)c(Br)c1` (stereo not shown) [Example 31, 4-(3-bromo-4-fluorophenyl)-1-methyl-1,2,4,7,8,9-hexahydropyrano[4,3-b]pyrazolo[4,3-e]pyridine-3,5-dione], for which the Emax was 96% and it took 760 nM to reach a half-maximal effect (EC50).

`Cn1[nH]c(=O)c2c1NC1=C(C(=O)OC1)C2c1ccc(F)c(Br)c1` (stereo not shown) [Example 32, 4-(3-bromo-4-fluorophenyl)-1-methyl-4,8-dihydro-1H-furo[3,4-b]pyrazolo[4,3-e]pyridine-3,5(2H,7H)-dione] showed an Emax of 73% and an EC50 of 520 nM.
